Measured values taken from patent US20220257722A1, “COMPOSITIONS AND METHODS OF TREATING AND PREVENTING SYSTEMIC COMPLICATIONS OF ACUTE ILLNESS” (United States Government As Represented By The Department …, priority 2019, published 2022).

Test system: rat jejunal mucosa
Experiment: LPS mucosal-to-serosal transport in Ussing-chambered rat jejunal mucosa (LAL test)
Format: cell-based
Conditions: for inhibitory effect of GLP-2 on LPS transport during OA/TCA exposure: inhibitor serosal 5 min before GLP-2 100 nM + NVP-728 10 μM; for amount of LPS transport at t=15 min (prior to OA/TCA exposure), in presence of GLP-2 + NVP-728: inhibitor serosal before GLP-2 + NVP-728; for OA/TCA-augmented LPS transport (t=30-45 min): mucosal LPS 10 μg/ml + OA 30 mM/TCA 0.1 mM; for OA/TCA-augmented LPS transport (t=30-45 min) / LPS transport at t=15 min (LPS alone, absence of OA/TCA): drug added 10 or 15 min before LPS; for LPS transport at t=15 min (LPS alone, absence of OA/TCA): mucosal LPS 10 μg/ml
Protocol: Short-circuit current measurements in Ussing chambered preparations. Mucosa-submucosa preparations were prepared from the mid-jejunum (˜20 cm from the pyloric ring) by muscle stripping using fine forceps under a stereomicroscope. Two or four preparations were prepared from one animal. The tissue was then mounted between two hemi-sliders with an aperture=0.3 cm^2 (Physiologic Instruments, San Diego, Calif., USA). Chambers were bathed with serosal and luminal bathing solutions in a volume of 4 ml each, maintained at 37° C. using a water recirculating heating system. The serosal Krebs-Ringer solution contained (in mM) NaCl, 117; KCl, 4.7; MgCl2, 1.2; NaH2PO4, 1.2; CaCl2, 2.5; NaHCO3, 25; glucose, 11; and bubbled with 95% O2-5% CO2 to maintain pH at 7.4. The luminal bathing solution contained NaCl, 136; KCl, 2.6; CaCl2, 1.8; HEPES, 10 (pH 7.0); mannitol, 11; and bubbled with 100% O2. The tissues were short-circuited by a voltage clamp (VCC MC6, Physiologic Instruments) at zero potential difference with automatic compensation for solution resistance. Short-circuit current (Isc) was continuously measured with tissue conductance (Gt) and TEER (Ω·cm^2) determined every 20 sec in order to assess the tissue integrity during the LPS and lipid exposure. The current was recorded by the DataQ system (Physiologic Instruments). IND (10 μM) was added to the serosal bath to eliminate the effects of endogenous prostaglandin production. The tissues were stabilized for ˜30 min before the addition of test chemicals.
LPS movement from mucosal to serosal solution. LPS movement m-to-s was assessed using a LAL test kit (Pierce Chromogenic Endotoxin Quant Kit, Pierce Biotechnology, Rockford, Ill., USA), which eliminates non-specific detection of (1,3)-β-D-glucan, then reduces false-positive LPS measurements. After tissue stabilization, time was set as t=0 min. Fifty μl of the serosal solution was collected at 0 min as a blank sample, followed by collection at t=15, 30 and 45 min. At t=0 min, LPS (10 μg/ml) was added into the mucosal solution. Vehicle (PBS alone), TCA alone (0.1 mM) in PBS or OA (3, 10, 30 mM) with TCA (0.1 mM) in PBS was added into the mucosal solution at t=15 min. The tissues were pretreated with drugs 10 or 15 min before the addition of LPS (i.e. at t=−10 or −15 min). The collected serosal solutions were kept at −80° C. until use. LPS content in the serosal solutions was measured with the LAL test according to the manufacturer's protocol. The value of background at t=0 min was subtracted and the serosal LPS appearance was expressed as Δ[LPS] (EU/ml). In some experiments, FITC-LPS (10 μg/ml) was used instead of LPS. Serosal FITC-LPS content was assessed by FITC fluorescence intensity measurement using a multi-mode microplate reader (Synergy-2, BioTek Instruments, Inc., Winooski, Vt., USA). To detect macromolecule m-to-s movement across the mucosa, FD4 (0.1 mM) was applied into the mucosal bath and serosal FD4 content was assessed by FITC fluorescence intensity measurement.
Ussing chamber study: drug treatment. The following drugs were pretreated by addition to the mucosal (m) or serosal (s) bath 10 or 15 min before LPS addition to the mucosal bath: the lipid raft inhibitor MβCD (1 mM, m), the CD36 inhibitor SSO (0.1 mM, m), the muscarinic agonist CCh (10 μM, s), a competitive substrate for IAP (IAP inhibitor) GP (10 mM, m) (47), GLP-2 (100 nM, s), the dipeptidyl peptidase-4 (DPP4) inhibitor NVP-728 (10 μM, s) (36), the stable GLP-2 analog TDG (100 nM) (13), the insulin-like growth factor-1 (IGF-1) receptor tyrosine kinase inhibitor NVP-AEW-541 (10 μM, s) (22), the epidermal growth factor (EGF) tyrosine kinase inhibitor PD153035 (1 μM, s) (6), the nitric oxide (NO) synthase (NOS) inhibitor L-NAME (0.1 mM, s) and the selective VPAC1 antagonist PG97-269 (1 μM) (26).

Q: How did the “inhibitory effect of GLP-2 on LPS transport during OA/TCA exposure” value turn out when COC(=O)[C@@H](N)CCCNC(=N)N[N+](=O)[O-] [L-NAME, Nω-nitro-L-arginine methyl ester] was run?
A: reversed

Q: What about the “amount of LPS transport at t=15 min (prior to OA/TCA exposure), in presence of GLP-2 + NVP-728” value of the same compound?
A: no effect

Q: What does the source list for CCCCCCCC/C=C\CCCCCCCC(=O)ON1C(=O)CC(S(=O)(=O)O)C1=O (stereo not drawn) [SSO, sulfosuccinimidyl oleate]?
A: OA/TCA-augmented LPS transport (t=30-45 min): abolished; LPS transport at t=15 min (LPS alone, absence of OA/TCA): no effect

Q: For CC[C@H](C)[C@H](NC(=O)[C@H](Cc1ccccc1)NC(=O)[C@H](CC(=O)O)NC(=O)[C@H](CCCNC(=N)N)NC(=O)[C@H](C)NC(=O)[C@H](C)NC(=O)[C@H](CC(C)C)NC(=O)[C@H](CC(N)=O)NC(=O)[C@H](CC(=O)O)NC(=O)[C@H](CC(C)C)NC(=O)[C@@H](NC(=O)[C@@H](NC(=O)[C@H](CC(N)=O)NC(=O)[C@H](CCSC)NC(=O)[C@H](CCC(=O)O)NC(=O)[C@H](CC(=O)O)NC(=O)[C@H](CO)NC(=O)[C@H](Cc1ccccc1)NC(=O)[C@H](CO)NC(=O)CNC(=O)[C@H](CC(=O)O)NC(=O)CNC(=O)[C@@H](N)Cc1c[nH]cn1)[C@@H](C)O)[C@@H](C)CC)C(=O)N[C@@H](CC(N)=O)C(=O)N[C@@H](Cc1c[nH]c2ccccc12)C(=O)N[C@@H](CC(C)C)C(=O)N[C@H](C(=O)N[C@@H](CCC(N)=O)C(=O)N[C@H](C(=O)N[C@@H](CCCCN)C(=O)N[C@H](C(=O)N[C@H](C(=O)N[C@@H](CC(=O)O)C(=O)O)[C@@H](C)O)[C@@H](C)CC)[C@@H](C)O)[C@@H](C)CC [TDG], which “OA/TCA-augmented LPS transport (t=30-45 min)” value is on record?
A: inhibited

Q: Which results are given for “[Ac-His^1, D-Phe^2, Lys^15, Arg^16, Leu^27]-VIP(1-7)-GRF(8-27) (HFDAVFTNSYRKVLKRLSARKLLQDIL; HELM PEPTIDE1{[ac].H.[dF].D.A.V.F.T.N.S.Y.R.K.V.L.K.R.L.S.A.R.K.L.L.Q.D.I.L.[am]}$$$$V2.0; SMILES CC[C@H](C)[C@H](NC(=O)[C@H](CC(=O)O)NC(=O)[C@H](CCC(N)=O)NC(=O)[C@H](CC(C)C)NC(=O)[C@H](CC(C)C)NC(=O)[C@H](CCCCN)NC(=O)[C@H](CCCNC(=N)N)NC(=O)[C@H](C)NC(=O)[C@H](CO)NC(=O)[C@H](CC(C)C)NC(=O)[C@H](CCCNC(=N)N)NC(=O)[C@H](CCCCN)NC(=O)[C@H](CC(C)C)NC(=O)[C@@H](NC(=O)[C@H](CCCCN)NC(=O)[C@H](CCCNC(=N)N)NC(=O)[C@H](Cc1ccc(O)cc1)NC(=O)[C@H](CO)NC(=O)[C@H](CC(N)=O)NC(=O)[C@@H](NC(=O)[C@H](Cc1ccccc1)NC(=O)[C@@H](NC(=O)[C@H](C)NC(=O)[C@H](CC(=O)O)NC(=O)[C@@H](Cc1ccccc1)NC(=O)[C@H](Cc1c[nH]cn1)NC(C)=O)C(C)C)[C@@H](C)O)C(C)C)C(=O)N[C@@H](CC(C)C)C(N)=O) [PG97-269]”?
A: inhibitory effect of GLP-2 on LPS transport during OA/TCA exposure: reversed; amount of LPS transport at t=15 min (prior to OA/TCA exposure), in presence of GLP-2 + NVP-728: no effect

Q: How did the “OA/TCA-augmented LPS transport (t=30-45 min)” value turn out when methyl-β-cyclodextrin [MβCD] was run?
A: inhibited

Q: And the “LPS transport at t=15 min (LPS alone, absence of OA/TCA)” value?
A: no effect
